Source: publication PMC3585964, “Tissue Inhibitor of Metalloproteinases-3 Peptides Inhibit Angiogenesis and Choroidal Neovascularization in Mice” (PLoS ONE, 2013)

Legend:
Type in all cases: cell-based, Porcine
[1] = test system: ERK1 (p44) and ERK2 (p42) in PAE/KDR cells; experiment: VEGF-stimulated ERK1/2 (MAP kinase) phosphorylation (western blot); details: 20 µM peptide
Protocol: (§1) Porcine Aortic Endothelial cells expressing VEGFR-2 (PAEKDR) were cultured in Ham’s F-12/DMEM medium supplemented with 10% fetal bovine serum (FBS) (Hyclone), 50 units/ml penicillin and 50 µg/ml streptomycin as described previously. Recombinant human VEGF was a kind gift from Genentech, CA. Antibodies: Anti-Phosphotyrosine clone 4G10 (Upstate Biotechnology/Millipore, Billerica, MA), monoclonal anti-Flk-1 (A-3) (Santa Cruz Biotechnology, Santacruz, CA), MAPK and phospho-specific MAPK antibodies (Calbiochem-Novabiochem Corporation/EMD chemicals, Gibbstown, NJ).
(§2) Immunoprecipitates of cell lysates with the indicated antibodies were subjected to SDS-PAGE and western blot analysis. Proteins were detected with either a HRP-conjugated anti-rabbit or anti-mouse IgG antibody (Amersham Pharmacia Biotech., Piscataway, NJ) followed by ECL. […]
(§3) Figure 3 Effects of TIMP-3 peptides on VEGF signaling in endothelial cells. […] Cell lysates were separated by SDS-PAGE (10%) and analyzed by immunoprecipitation with an anti-KDR anti-body followed by immunoblotting with an anti-phosphotyrosine antibody, 4G10 (top panel). KDR protein was analyzed by immunoprecipitation and immunoblotting of cell lysates using anti-KDR antibody (bottom panel). (b) Densitometric quantitation of 210-kDa bands for phospho- or total mature form of KDR. […]

PAE/KDR cells = experiment: Actin reorganization / membrane ruffle formation (FITC-phalloidin); details: peptide at doses as high as 20 µM; 50 ng/ml VEGF 30 min 37°C
Protocol: as §1
Subconfluent cells cultured on Falcon culture slides (BD Biosciences) were serum-starved overnight and stimulated for 30 min at 37°C with 50 ng/ml VEGF or control buffer. The cells were fixed with 3.7% paraformaldehyde in PBS for 30 min at 4°C and permeabilized with 0.2% Triton X-100 for 20 min at room temperature. Following rinsing with PBS, the cells were incubated with fluorescein isothiocyanate (FITC)-labeled phalloidin in PBS (0.66 µg/ml, Sigma Aldrich, St. Louis, MO) for 20 min at room temperature, washed with PBS and analyzed by fluorescence microscopy.
Figure 5 Effects of TIMP-3 peptides on VEGF-mediated actin reorganization. TIMP-3 loop 6 and tail but not loop 5 and N-peptide inhibit VEGF-induced actin reorganization in PAE/KDR cells. […]

[2] = test system: VEGFR-2 (KDR) in PAE/KDR cells; experiment: VEGF-induced VEGFR-2 phosphorylation (immunoprecipitation/western blot); details: 20 µM peptide, 50 ng/ml VEGF
Protocol: as §1, §2, §3

| Sequence | Inhibition of VEGF-stimulated MAP kinase activation [1] | Inhibition of VEGF-stimulated membrane ruffle formation (PAE/KDR cells) | Inhibition of VEGF-induced VEGFR-2 activation (phosphorylation) [2] |
| --- | --- | --- | --- |
| KIKSCYYLPCFVTS [T3-loop 5] | neither loop 5 nor N-peptide, even at higher concentrations (20 µM) inhibited VEGF-stimulated MAP kinase activation | neither T3-loop 5 nor T3-N peptide at doses as high as 20 µM inhibited the formation of membrane ruffles | failed to inhibit VEGF-induced receptor activation |
| RGFTKMPHVQYIHTEASESL [T3-N peptide] | neither loop 5 nor N-peptide, even at higher concentrations (20 µM) inhibited VEGF-stimulated MAP kinase activation | neither T3-loop 5 nor T3-N peptide at doses as high as 20 µM inhibited the formation of membrane ruffles | failed to inhibit VEGF-induced receptor activation |
